Assay results published in ChEMBL document CHEMBL5360611, “Mycobacterium tuberculosis PptT Inhibitors Based on Heterocyclic Replacements of Amidinoureas” (ACS Med Chem Lett, 2023).
Converted amounts (≈) assume the structure as drawn.

Legend:
[1] = system: Mycobacterium tuberculosis; assay: Antimycobacterial activity against Mycobacterium tuberculosis H37Rv assessed as bacterial growth inhibition; assay type: functional
[2] = target: T1, 4'-phosphopantetheinyl transferase PptT (Mycobacterium tuberculosis, UniProt O33336); assay: Inhibition of Mycobacterium tuberculosis H37Rv PptT by BpsA-coupled assay
T1 sequence (O33336 whole entry): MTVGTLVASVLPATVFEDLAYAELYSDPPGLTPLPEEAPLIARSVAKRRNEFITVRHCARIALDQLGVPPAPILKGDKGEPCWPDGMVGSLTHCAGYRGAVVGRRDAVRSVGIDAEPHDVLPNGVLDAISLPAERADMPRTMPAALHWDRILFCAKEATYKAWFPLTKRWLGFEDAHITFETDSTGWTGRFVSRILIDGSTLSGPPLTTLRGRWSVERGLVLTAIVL

[3] = target: T1, 4'-phosphopantetheinyl transferase PptT; assay: Inhibition of Mycobacterium tuberculosis H37Rv PptT by fluorescence polarization assay
[4] = Lipophilicity, logD of compound at pH 7.4; assay type: physicochemical; conditions: buffer
[5] = Cytotoxicity against human HepG2 cells; assay type: toxicity, cell-based; conditions: read-out: TC50 (the source's name)
[6] = target: T1, 4'-phosphopantetheinyl transferase PptT; assay: Inhibition of Mycobacterium tuberculosis PptT by fluorescence polarization assay
[7] = target: Voltage-dependent L-type calcium channel subunit alpha-1C (Homo sapiens, UniProt Q13936); assay: Inhibition of human Cav1.2 cardiac ion channel transfected in HEK cells by automatic patch clamp analysis; assay type: toxicity, cell-based
Chain of Voltage-dependent L-type calcium channel subunit alpha-1C (Q13936 whole entry): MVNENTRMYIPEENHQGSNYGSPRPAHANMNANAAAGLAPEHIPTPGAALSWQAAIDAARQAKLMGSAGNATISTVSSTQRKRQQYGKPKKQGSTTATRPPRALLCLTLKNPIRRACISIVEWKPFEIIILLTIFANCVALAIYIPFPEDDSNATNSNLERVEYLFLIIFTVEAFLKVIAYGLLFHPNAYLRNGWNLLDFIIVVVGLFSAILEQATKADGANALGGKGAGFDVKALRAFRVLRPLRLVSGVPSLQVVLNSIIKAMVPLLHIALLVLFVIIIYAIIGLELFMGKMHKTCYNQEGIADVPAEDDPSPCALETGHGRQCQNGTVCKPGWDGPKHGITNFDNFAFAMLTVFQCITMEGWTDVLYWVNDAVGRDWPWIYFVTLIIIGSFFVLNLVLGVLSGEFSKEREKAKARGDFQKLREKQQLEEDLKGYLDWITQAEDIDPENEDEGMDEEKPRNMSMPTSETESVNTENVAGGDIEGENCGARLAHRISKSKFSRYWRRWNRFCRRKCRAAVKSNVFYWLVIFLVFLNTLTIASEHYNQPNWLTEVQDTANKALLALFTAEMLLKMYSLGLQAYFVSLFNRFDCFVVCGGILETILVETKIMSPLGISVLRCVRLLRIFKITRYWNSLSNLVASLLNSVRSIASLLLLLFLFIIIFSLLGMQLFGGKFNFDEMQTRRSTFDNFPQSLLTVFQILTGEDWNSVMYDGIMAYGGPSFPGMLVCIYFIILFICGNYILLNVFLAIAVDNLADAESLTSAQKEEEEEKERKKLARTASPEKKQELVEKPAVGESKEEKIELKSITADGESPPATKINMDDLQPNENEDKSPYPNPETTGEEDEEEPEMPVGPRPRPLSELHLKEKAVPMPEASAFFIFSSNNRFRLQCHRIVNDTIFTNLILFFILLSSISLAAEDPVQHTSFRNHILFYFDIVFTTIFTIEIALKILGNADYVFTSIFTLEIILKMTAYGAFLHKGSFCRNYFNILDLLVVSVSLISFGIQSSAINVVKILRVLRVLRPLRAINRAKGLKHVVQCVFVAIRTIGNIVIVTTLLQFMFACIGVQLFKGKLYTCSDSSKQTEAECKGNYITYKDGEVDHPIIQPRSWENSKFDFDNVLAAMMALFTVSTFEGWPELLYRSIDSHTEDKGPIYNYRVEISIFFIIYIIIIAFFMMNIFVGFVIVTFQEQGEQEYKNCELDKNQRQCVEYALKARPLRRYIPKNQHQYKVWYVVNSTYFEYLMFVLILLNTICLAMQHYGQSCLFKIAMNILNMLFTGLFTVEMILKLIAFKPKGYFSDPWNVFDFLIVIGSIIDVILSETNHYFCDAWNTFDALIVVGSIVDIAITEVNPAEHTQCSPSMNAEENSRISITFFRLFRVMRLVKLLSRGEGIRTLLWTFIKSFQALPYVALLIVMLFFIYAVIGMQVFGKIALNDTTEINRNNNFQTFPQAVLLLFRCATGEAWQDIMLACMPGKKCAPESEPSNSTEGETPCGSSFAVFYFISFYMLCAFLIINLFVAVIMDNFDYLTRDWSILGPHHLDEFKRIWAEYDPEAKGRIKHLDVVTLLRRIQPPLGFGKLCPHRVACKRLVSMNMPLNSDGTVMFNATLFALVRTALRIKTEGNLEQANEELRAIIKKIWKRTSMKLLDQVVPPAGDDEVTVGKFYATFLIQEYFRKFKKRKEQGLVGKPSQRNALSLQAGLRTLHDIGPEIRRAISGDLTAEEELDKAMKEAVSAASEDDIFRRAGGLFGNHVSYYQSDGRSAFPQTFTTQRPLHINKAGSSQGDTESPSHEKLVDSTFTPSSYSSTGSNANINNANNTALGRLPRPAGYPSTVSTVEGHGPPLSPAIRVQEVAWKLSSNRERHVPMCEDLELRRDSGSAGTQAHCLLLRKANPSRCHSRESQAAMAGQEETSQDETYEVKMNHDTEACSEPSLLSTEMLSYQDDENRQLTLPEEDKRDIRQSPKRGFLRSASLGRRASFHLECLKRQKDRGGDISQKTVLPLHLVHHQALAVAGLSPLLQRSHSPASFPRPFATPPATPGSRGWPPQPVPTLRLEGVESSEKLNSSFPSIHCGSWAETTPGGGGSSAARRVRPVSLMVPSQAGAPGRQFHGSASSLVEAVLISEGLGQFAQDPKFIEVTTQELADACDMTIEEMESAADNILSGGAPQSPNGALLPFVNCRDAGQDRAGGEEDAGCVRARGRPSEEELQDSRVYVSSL

[8] = Cytotoxicity against human THP-1 cells; assay type: toxicity, cell-based; conditions: read-out: TC50 (the source's name)
[9] = target: Sodium channel protein type 5 subunit alpha (Homo sapiens, UniProt Q14524); assay: Inhibition of human Nav1.5 channel ion channel transfected in HEK cells by automatic patch clamp analysis; assay type: toxicity, cell-based
Chain of Sodium channel protein type 5 subunit alpha (Q14524 whole entry): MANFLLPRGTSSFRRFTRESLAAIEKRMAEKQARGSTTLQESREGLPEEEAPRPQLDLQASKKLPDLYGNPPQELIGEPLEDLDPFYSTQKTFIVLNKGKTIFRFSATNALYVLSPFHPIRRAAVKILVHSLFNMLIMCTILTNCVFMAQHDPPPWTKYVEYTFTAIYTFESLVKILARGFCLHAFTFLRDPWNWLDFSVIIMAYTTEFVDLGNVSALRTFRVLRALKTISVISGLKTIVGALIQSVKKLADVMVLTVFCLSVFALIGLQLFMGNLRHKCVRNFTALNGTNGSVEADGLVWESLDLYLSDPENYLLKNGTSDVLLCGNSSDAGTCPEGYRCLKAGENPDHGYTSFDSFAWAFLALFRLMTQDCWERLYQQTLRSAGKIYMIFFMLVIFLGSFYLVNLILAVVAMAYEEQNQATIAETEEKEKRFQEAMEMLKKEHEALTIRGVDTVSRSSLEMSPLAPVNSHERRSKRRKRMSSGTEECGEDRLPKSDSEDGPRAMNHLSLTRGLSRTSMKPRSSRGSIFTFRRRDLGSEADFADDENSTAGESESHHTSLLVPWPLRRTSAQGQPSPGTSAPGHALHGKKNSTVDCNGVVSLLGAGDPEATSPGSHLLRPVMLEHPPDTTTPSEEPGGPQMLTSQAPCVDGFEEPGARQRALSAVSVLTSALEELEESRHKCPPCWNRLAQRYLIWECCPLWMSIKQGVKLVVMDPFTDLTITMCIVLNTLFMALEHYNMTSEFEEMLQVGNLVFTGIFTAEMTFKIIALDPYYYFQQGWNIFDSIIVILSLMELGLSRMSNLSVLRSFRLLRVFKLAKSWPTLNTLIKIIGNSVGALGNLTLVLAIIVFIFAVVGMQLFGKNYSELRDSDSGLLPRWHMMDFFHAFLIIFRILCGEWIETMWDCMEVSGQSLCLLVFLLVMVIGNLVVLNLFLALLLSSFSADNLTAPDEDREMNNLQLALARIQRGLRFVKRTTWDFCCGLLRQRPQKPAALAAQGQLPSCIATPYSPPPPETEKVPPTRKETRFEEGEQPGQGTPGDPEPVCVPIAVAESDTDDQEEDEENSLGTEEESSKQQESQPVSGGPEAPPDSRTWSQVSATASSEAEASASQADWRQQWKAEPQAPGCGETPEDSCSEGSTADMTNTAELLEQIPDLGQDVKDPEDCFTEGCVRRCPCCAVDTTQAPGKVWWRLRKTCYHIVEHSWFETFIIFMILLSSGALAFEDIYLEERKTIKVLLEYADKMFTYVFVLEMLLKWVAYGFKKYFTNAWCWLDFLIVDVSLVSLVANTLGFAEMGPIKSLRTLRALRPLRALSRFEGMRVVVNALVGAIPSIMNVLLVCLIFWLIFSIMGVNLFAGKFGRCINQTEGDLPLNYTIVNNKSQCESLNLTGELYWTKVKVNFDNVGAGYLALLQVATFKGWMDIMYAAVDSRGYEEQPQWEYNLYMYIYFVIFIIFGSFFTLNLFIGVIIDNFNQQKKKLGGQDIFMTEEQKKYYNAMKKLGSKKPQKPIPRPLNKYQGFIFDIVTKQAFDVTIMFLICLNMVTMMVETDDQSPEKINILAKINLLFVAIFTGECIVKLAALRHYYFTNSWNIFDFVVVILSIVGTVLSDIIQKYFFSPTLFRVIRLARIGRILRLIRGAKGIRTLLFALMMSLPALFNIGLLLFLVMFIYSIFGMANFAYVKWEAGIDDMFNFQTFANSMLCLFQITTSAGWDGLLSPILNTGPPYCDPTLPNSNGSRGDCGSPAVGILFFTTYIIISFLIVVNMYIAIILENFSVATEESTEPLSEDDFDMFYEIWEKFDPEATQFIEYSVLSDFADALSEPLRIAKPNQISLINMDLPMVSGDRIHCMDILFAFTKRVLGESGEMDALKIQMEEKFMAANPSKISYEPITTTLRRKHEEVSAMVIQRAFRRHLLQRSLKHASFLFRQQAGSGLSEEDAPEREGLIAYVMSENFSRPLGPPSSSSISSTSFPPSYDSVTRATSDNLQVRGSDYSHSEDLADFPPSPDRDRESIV

[10] = Permeability of compound in human Caco-2 cells; assay type: ADME, cell-based; conditions: read-out: permeability
[11] = target: T1, 4'-phosphopantetheinyl transferase PptT; assay: Inhibition of his-tagged Mycobacterium tuberculosis PptT expressed in Escherichia coli BL21 cells by BpsA-coupled assay
[12] = Solubility of compound; assay type: physicochemical
[13] = target: Voltage-gated inwardly rectifying potassium channel KCNH2 (Homo sapiens, UniProt Q12809); assay: Inhibition of hERG transfected in HEK cells by automatic patch clamp analysis; assay type: toxicity, cell-based

SMILES	MIC90 [1] [µM]	IC50 [2] [µM]	IC50 [3] [µM]	other results
CCNc1nc(Nc2c(CC)cccc2CC)ccc1OC	62 (≈ 18.6 µg/mL)	87	> 100	
CCc1cccc(CC)c1Nc1cccc(NCC(C)C)n1	17 (≈ 5.06 µg/mL)	> 100	> 100	
CCc1cccc(CC)c1/N=C1\CN(CC)C(=N)N1		16		
C=C(NCC)NC(=O)Nc1c(CC)cccc1CC	3.1 (≈ 0.81 µg/mL)			logD [4]: 1.09; CC50 [5]: > 30 µM; IC50 [6]: 0.23 µM; IC50 [7]: 8.4 µM; CC50 [8]: > 30 µM; IC50 [9]: 3.8 µM; Papp [10]: 4 ×10⁻⁶ cm/s; IC50 [11]: 2.3 µM; solubility [12]: > 1000 µg/mL; IC50 [13]: > 30 µM
CCNc1cc(C)cc(Nc2c(CC)cccc2CC)n1	22 (≈ 6.24 µg/mL)	6.4		
CCNc1ccc(C(F)(F)F)c(Nc2c(CC)cccc2CC)n1	43 (≈ 14.5 µg/mL)	30	> 100	IC50 [7]: 15 µM; IC50 [9]: 14 µM; IC50 [13]: > 30 µM
CCc1cccc(CC)c1Nc1cccc(NC)n1	42 (≈ 10.7 µg/mL)	20		IC50 [7]: < 3 µM; IC50 [9]: 3.8 µM; IC50 [13]: 7.5 µM
CCNc1cccc(Nc2c(CC(F)(F)F)cccc2CC(F)(F)F)n1	> 100	> 100	1.3	
CCNc1cccc(Nc2c(C(C)C)cccc2C(C)C)n1	> 100		> 100	
CCc1cccc(CC)c1Nc1cccc(NC(C)C)n1	32 (≈ 9.07 µg/mL)	> 100	> 100	
CCNC1=N/C(=N/c2c(Cl)cccc2Cl)CN1				IC50 [7]: > 30 µM; IC50 [9]: > 30 µM; IC50 [13]: > 30 µM
CCNc1ccc(C)c(Nc2c(CC)cccc2CC)n1	55 (≈ 15.6 µg/mL)	1.8		
CCNc1ccc(Cl)c(Nc2c(CC)cccc2CC)n1	> 100	> 100		
CCNc1cccc(Nc2c(CC)cc(C(=O)NC)cc2CC)n1	69 (≈ 22.5 µg/mL)		3.3	
CCc1cccc(CC)c1/N=C1\CNC(=N)N1CC		84		
CCNc1cccc(Nc2c(CC)cc(S(=O)(=O)NCC)cc2CC)n1	> 100		1	
CCc1cccc(CC)c1Nc1cccc(NC(C)=O)n1	62 (≈ 17.6 µg/mL)	> 100	> 100	
CCNc1ccc(F)c(Nc2c(CC)cccc2CC)n1	> 100	12		
CCNc1nc(Nc2c(CC)cccc2CC)ccc1F	> 100	7.2		
CCNc1cccc(Nc2c(CC)cccc2CC)n1	42 (≈ 11.3 µg/mL)	3.3	0.71	IC50 [7]: 8.1 µM; IC50 [9]: 6.9 µM; IC50 [13]: 11 µM
CCNc1nc(Nc2c(CC)cccc2CC)ccc1C	54 (≈ 15.3 µg/mL)	23		
CCNc1cccc(Nc2c(C3CC3)cccc2C2CC2)n1	22 (≈ 6.46 µg/mL)	8.4		
CCNc1cc(OC)cc(Nc2c(CC)cccc2CC)n1	16 (≈ 4.79 µg/mL)	0.72	5	IC50 [7]: 3.4 µM; IC50 [9]: 3.7 µM; IC50 [13]: 5.7 µM
